Biological target: T1, Protein deacetylase HDAC6 (Homo sapiens, UniProt Q9UBN7)
T1 sequence (Q9UBN7 whole entry): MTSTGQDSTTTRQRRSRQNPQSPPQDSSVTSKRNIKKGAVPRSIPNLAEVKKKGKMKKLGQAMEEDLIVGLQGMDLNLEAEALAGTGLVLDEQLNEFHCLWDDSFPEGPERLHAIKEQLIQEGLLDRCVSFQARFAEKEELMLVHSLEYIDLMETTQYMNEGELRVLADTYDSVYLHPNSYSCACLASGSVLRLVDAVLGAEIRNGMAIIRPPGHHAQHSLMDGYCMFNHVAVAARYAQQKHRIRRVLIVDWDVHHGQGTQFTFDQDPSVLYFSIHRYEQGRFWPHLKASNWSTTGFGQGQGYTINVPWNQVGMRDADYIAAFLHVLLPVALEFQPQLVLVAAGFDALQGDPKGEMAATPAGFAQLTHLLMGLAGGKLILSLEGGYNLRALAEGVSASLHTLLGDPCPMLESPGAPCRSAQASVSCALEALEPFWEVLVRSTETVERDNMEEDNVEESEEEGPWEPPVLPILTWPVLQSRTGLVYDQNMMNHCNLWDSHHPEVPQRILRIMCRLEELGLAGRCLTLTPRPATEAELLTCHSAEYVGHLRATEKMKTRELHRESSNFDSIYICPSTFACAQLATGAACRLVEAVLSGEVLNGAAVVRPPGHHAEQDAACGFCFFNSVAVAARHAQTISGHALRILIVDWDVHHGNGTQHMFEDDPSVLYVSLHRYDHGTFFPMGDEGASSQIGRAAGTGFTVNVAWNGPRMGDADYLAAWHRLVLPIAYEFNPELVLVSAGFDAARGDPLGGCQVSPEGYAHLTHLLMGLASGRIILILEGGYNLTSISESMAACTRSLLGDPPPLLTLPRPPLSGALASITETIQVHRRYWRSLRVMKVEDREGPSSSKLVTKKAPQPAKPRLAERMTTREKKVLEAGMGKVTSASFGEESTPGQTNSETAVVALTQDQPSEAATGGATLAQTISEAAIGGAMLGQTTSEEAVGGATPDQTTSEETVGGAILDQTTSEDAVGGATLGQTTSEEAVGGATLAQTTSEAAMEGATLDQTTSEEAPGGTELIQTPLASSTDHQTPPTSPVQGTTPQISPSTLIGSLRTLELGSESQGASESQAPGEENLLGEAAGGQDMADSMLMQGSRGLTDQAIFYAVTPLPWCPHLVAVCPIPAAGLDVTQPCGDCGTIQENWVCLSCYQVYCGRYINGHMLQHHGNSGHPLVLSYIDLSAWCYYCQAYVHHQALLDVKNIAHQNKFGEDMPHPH
Assay: Inhibition of HDAC6 (unknown origin)

`O=C(NO)c1ccc(CN2c3ccccc3[S+]([O-])C[C@H]3CCCC[C@H]32)cc1` (stereo partly specified) showed an IC50 of 100 nM.

Source: ChEMBL document CHEMBL6078616, “Seven-membered N-heterocycles as approved drugs and promising leads in medicinal chemistry as well as the metal-free domino access to their scaffolds” (Eur J Med Chem, 2024)
